≈ marks a conversion by molar mass, not a printed value. Blank lines part the entries; values can stand above or below the molecule they belong to.
Assays:
Test in all cases: ≥ marks a high value that may be exact or a test limit, other limits are often not marked, values filed in µg/mL are converted to µM
[1] = test system: Shigella dysenteriae ATCC 9752
[2] = test system: Klebsiella pneumoniae ATCC 10031
[3] = test system: Escherichia coli KCTC 2433
[4] = test system: Staphylococcus epidermidis ATCC 12228
[5] = test system: Bacillus subtilis ATCC 6633
[6] = test system: Candida albicans ATCC 36232
[7] = test system: Pseudomonas aeruginosa ATCC 9027
[8] = test system: Proteus mirabilis ATCC 25933
[9] = test system: Staphylococcus aureus KCTC 3881
[10] = test system: Micrococcus luteus ATCC 4698
Pseudomonas aeruginosa = test system: Pseudomonas aeruginosa
Escherichia coli = test system: Escherichia coli
Staphylococcus aureus = test system: Staphylococcus aureus
Klebsiella pneumoniae = test system: Klebsiella pneumoniae
Citrobacter sp. = test system: Citrobacter sp.
Bacillus subtilis = test system: Bacillus subtilis
[11] = test system: Escherichia coli ATCC 25922
[12] = test system: Staphylococcus aureus ATCC 25923
Pseudomonas sp. = test system: Pseudomonas sp.
[13] = test system: Pseudomonas aeruginosa ATCC 27853
Acinetobacter sp. = test system: Acinetobacter sp.
[14] = test system: Staphylococcus aureus USA 100
[15] = test system: Malassezia furfur KCTC 7744
[16] = test system: Enterococcus faecalis ATCC 29212
[17] = test system: Escherichia coli LMG 15862
[18] = test system: Pseudomonas aeruginosa H103
Escherichia coli UB1005 = test system: Escherichia coli UB1005
[19] = test system: Trichosporon beigelii KCTC 7707
[20] = test system: Candida parapsilosis ATCC 22019
[21] = test system: Salmonella enterica serovar Typhimurium
[22] = test system: Pseudomonas aeruginosa PAO1 H103
[23] = test system: Staphylococcus aureus USA 300
[24] = test system: Mycobacterium tuberculosis H37Rv
[25] = test system: Staphylococcus epidermidis
[26] = test system: Klebsiella pneumoniae LMG 20218
[27] = test system: Pseudomonas aeruginosa LMG 6395
[28] = test system: Klebsiella aerogenes LMG 02094
[29] = test system: Staphylococcus aureus ATCC 29213
[30] = test system: Acinetobacter baumannii LMG 01041
Candida albicans = test system: Candida albicans
[31] = test system: Escherichia coli KCCM 11569
[32] = test system: Bacillus subtilis KCCM 11495
[33] = test system: Saccharomyces cerevisiae AS2.430

MIC [1]: ≥ 52.5 µM
MIC [2]: ≥ 52.5 µM
MIC [3]: ≥ 52.5 µM
MIC [4]: 31.5 µM (≈ 59.9 µg/mL)
MIC [5]: 26.2 µM (≈ 49.9 µg/mL)
MIC [6]: ≥ 52.5 µM
MIC [7]: > 52.5 µM
MIC [8]: ≥ 52.5 µM
MIC [9]: 13.1 µM (≈ 25 µg/mL)
MIC [10]: 6.56 µM (≈ 12.5 µg/mL)
Structure (SMILES): CC[C@H](C)[C@H](NC(=O)[C@H](CC(C)C)NC(=O)[C@@H](N)Cc1ccccc1)C(=O)NCC(=O)N[C@@H](CCSC)C(=O)N[C@H](C(=O)N[C@@H](Cc1cnc[nH]1)C(=O)NCC(=O)N[C@@H](CC(C)C)C(=O)N[C@H](C(=O)N[C@H]1CSSC[C@@H](C(=O)O)NC(=O)[C@H](CCCCN)NC(=O)[C@H](CCCN=C(N)N)NC(=O)[C@H](CO)NC(=O)[C@H]([C@@H](C)CC)NC(=O)[C@H](CC(C)C)NC1=O)[C@@H](C)CC)[C@@H](C)O [FLIGMTHGLICLISRKC]

MIC (Pseudomonas aeruginosa): 2 µM (≈ 5.24 µg/mL)
MIC (Escherichia coli): 2 µM (≈ 5.24 µg/mL)
MIC (Staphylococcus aureus): 4 µM (≈ 10.5 µg/mL)
MIC (Klebsiella pneumoniae): 2.83 µM (≈ 7.42 µg/mL)
MIC (Citrobacter sp.): 2 µM (≈ 5.24 µg/mL)
MIC (Bacillus subtilis): 2 µM (≈ 5.24 µg/mL)
MIC [11]: 2 µM (≈ 5.24 µg/mL)
MIC [12]: 2 µM (≈ 5.24 µg/mL)
MIC (Pseudomonas sp.): 2 µM (≈ 5.24 µg/mL)
MIC [13]: 2 µM (≈ 5.24 µg/mL)
MIC (Acinetobacter sp.): 2 µM (≈ 5.24 µg/mL)
Structure (SMILES): CC[C@H](C)[C@H](NC(=O)[C@H](CC(C)C)NC(=O)[C@H](CCCN=C(N)N)NC(=O)[C@H](CC(C)C)NC(=O)[C@H](CCCCN)NC(=O)CN)C(=O)N[C@@H](CCCCN)C(=O)N[C@@H](CCCCN)C(=O)N[C@@H](CC(C)C)C(=O)N[C@@H](Cc1c[nH]c2ccccc12)C(=O)N[C@H](C(=O)N[C@@H](CCCCN)C(=O)N[C@@H](CCCCN)C(=O)N[C@@H](Cc1c[nH]c2ccccc12)C(=O)N[C@@H](CCCCN)C(=O)N[C@@H](CCCCN)C(=O)N[C@@H](CCCCN)C(=O)NCC(=O)N[C@@H](Cc1c[nH]c2ccccc12)C(=O)N[C@@H](CCCCN)C(=O)N[C@@H](C)C(N)=O)C(C)C [GKLRLIKKLWVKKWKKKGWKA]

MIC [14]: 6.25 µM (≈ 7.4 µg/mL)
MIC [15]: 25 µM (≈ 29.6 µg/mL)
MIC [16]: 1.69 µM (≈ 2 µg/mL)
MIC [17]: 3 µM (≈ 3.55 µg/mL)
MIC [18]: 6.75 µM (≈ 7.99 µg/mL)
MIC (Escherichia coli UB1005): 1.69 µM (≈ 2 µg/mL)
MIC [19]: 12.5 µM (≈ 14.8 µg/mL)
MIC [20]: 12.5 µM (≈ 14.8 µg/mL)
MIC [21]: 6.75 µM (≈ 7.99 µg/mL)
MIC [11]: 3.38 µM (≈ 4 µg/mL)
MIC [12]: 1.69 µM (≈ 2 µg/mL)
MIC [7]: 12.5 µM (≈ 14.8 µg/mL)
MIC [22]: 3.38 µM (≈ 4 µg/mL)
MIC [23]: 6.25 µM (≈ 7.4 µg/mL)
MIC [24]: 2.2 µM (≈ 2.6 µg/mL)
MIC [25]: 1.69 µM (≈ 2 µg/mL)
MIC [26]: 6 µM (≈ 7.1 µg/mL)
MIC [27]: 3 µM (≈ 3.55 µg/mL)
MIC [28]: 5 µM (≈ 5.92 µg/mL)
MIC [29]: 6.75 µM (≈ 7.99 µg/mL)
MIC [30]: 2 µM (≈ 2.37 µg/mL)
MIC (Candida albicans): 6.75 µM (≈ 7.99 µg/mL)
Structure (SMILES): CC[C@H](C)[C@H](NC(=O)[C@@H](NC(=O)[C@H](Cc1c[nH]c2ccccc12)NC(=O)[C@@H](NC(=O)[C@@H](N)CCCN=C(N)N)[C@@H](C)CC)C(C)C)C(=O)N[C@@H](Cc1c[nH]c2ccccc12)C(=O)N[C@@H](CCCN=C(N)N)C(=O)N[C@@H](CCCN=C(N)N)C(N)=O [RIWVIWRR]

MIC [31]: 25.9 µM (≈ 45.2 µg/mL)
MIC [32]: 6.48 µM (≈ 11.3 µg/mL)
Structure (SMILES): CC(C)C[C@H](NC(=O)CNC(=O)[C@H](Cc1cnc[nH]1)NC(=O)[C@H](Cc1cnc[nH]1)NC(=O)[C@H](CC(C)C)NC(=O)[C@H](CC(C)C)NC(=O)[C@H](C)NC(=O)[C@H](CC(N)=O)NC(=O)[C@H](CC(C)C)NC(=O)[C@@H](N)Cc1c[nH]c2ccccc12)C(=O)N[C@@H](CC(N)=O)C(=O)N[C@@H](CS)C(=O)N[C@@H](C)C(=O)N[C@@H](CCCCN)C(=O)NCC(=O)N[C@H](C(N)=O)C(C)C [WLNALLHHGLNCAKGV]

MIC [33]: ≥ 6750 µM
MIC [11]: 211 µM (≈ 313 µg/mL)
MIC [12]: 211 µM (≈ 313 µg/mL)
Structure (SMILES): CC(C)C[C@H](NC(=O)[C@H](CO)NC(=O)CNC(=O)[C@H](CCC(=O)O)NC(=O)[C@H](CC(C)C)NC(=O)[C@H](CCC(=O)O)NC(=O)[C@H](C)NC(=O)[C@H](CCC(N)=O)NC(=O)[C@H](CO)NC(=O)[C@H](CCC(=O)O)NC(=O)[C@H](CCC(=O)O)NC(=O)[C@@H](N)Cc1ccc(O)cc1)C(=O)N[C@@H](CCCCN)C(=O)O [YEESQAELEGSLK]
